Test results: PubChem BioAssay AID330 (DTP/NCI, 2004)
“And” between values parts separate entries of the source, which are not always exact repeats. Equal values may be shown once. Inconclusive results and toxic doses are left out. The calls were made as follows: active = survival T/C of 150% or more; inactive = T/C below 125% in these data.

System: P388 leukemia ip, CD2F1 mice, survival T/C
Experiment: NCI In Vivo Anticancer Drug Screen. Data for tumor model P388 Leukemia (intraperitoneal) in CD2F1 (CDF1) mice
Conditions: endpoint: median survival time, higher = longer survival
Outline: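 Mice carrying the transplanted tumor received test compound or vehicle. Survival was recorded in each group, and the value is the treated-group measurement divided by that of the vehicle-treated control group.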

[1] = dose: 60.0 mg/kg/injection, schedule: Q01DX005 (ip), vehicle: saline with Tween-80
[2] = dose: 120.0 mg/kg/injection, schedule: Q01DX005 (ip), vehicle: saline with Tween-80
[3] = dose: 240.0 mg/kg/injection, schedule: Q01DX005 (ip), vehicle: saline with Tween-80
[4] = dose: 50.0 mg/kg/injection, schedule: Q01DX009 (ip), vehicle: Klucel (hydroxypropylcellulose) (HPC)
[5] = dose: 100.0 mg/kg/injection, schedule: Q01DX009 (ip), vehicle: Klucel (hydroxypropylcellulose) (HPC)
[6] = dose: 200.0 mg/kg/injection, schedule: Q01DX009 (ip), vehicle: Klucel (hydroxypropylcellulose) (HPC)
[7] = dose: 50.0 mg/kg/injection, schedule: Q01DX009 (ip), vehicle: saline with Tween-80
[8] = dose: 100.0 mg/kg/injection, schedule: Q01DX009 (ip), vehicle: saline with Tween-80
[9] = dose: 200.0 mg/kg/injection, schedule: Q01DX009 (ip), vehicle: saline with Tween-80

Measured: T/C

O=c1[nH]c2cc(Cl)ccc2nc1/C=C(\O)c1ccccc1O
inactive: [1] 86 % of control and 95 % of control | [2] 92 % of control | [3] 89 % of control and 96 % of control

CN(C)c1ccc(C(O)Cc2ccc3ccccc3n2)cc1 (stereo unspecified)
inactive: [4] 113 % of control | [5] 92 % of control | [6] 92 % of control

Cc1ccnc(NN=O)n1
inactive: dose: 3.12 mg/kg/injection, schedule: Q01DX009 (ip), vehicle: water 99 % of control | dose: 6.25 mg/kg/injection, schedule: Q01DX009 (ip), vehicle: water 113 % of control | dose: 12.5 mg/kg/injection, schedule: Q01DX009 (ip), vehicle: water 98 % of control | dose: 25.0 mg/kg/injection, schedule: Q01DX009 (ip), vehicle: water 100 % of control and 105 % of control | dose: 50.0 mg/kg/injection, schedule: Q01DX009 (ip), vehicle: water 113 % of control and 90 % of control | dose: 100.0 mg/kg/injection, schedule: Q01DX009 (ip), vehicle: water 100 % of control | dose: 200.0 mg/kg/injection, schedule: Q01DX009 (ip), vehicle: water 104 % of control

COc1cc2cc(c1Cl)N(C)C(=O)CC(O)C1(C)OC1C(C)C1CC(O)(NC(=O)O1)C(OC)/C=C/C=C(C)C2OC (stereo unspecified)
inactive: dose: 4.0 micrograms/kg/injection, schedule: Q01DX009 (ip), vehicle: distilled water + Tween-80 + alcohol 97 % of control | dose: 8.0 micrograms/kg/injection, schedule: Q01DX009 (ip), vehicle: distilled water + Tween-80 + alcohol 104 % of control | dose: 16.0 micrograms/kg/injection, schedule: Q01DX009 (ip), vehicle: distilled water + Tween-80 + alcohol 97 % of control | dose: 32.0 micrograms/kg/injection, schedule: Q01DX009 (ip), vehicle: distilled water + Tween-80 + alcohol 107 % of control | dose: 32.0 micrograms/kg/injection, schedule: Q01DX009 (ip), vehicle: distilled water + alcohol 99 % of control | dose: 64.0 micrograms/kg/injection, schedule: Q01DX009 (ip), vehicle: distilled water + alcohol 101 % of control | dose: 128.0 micrograms/kg/injection, schedule: Q01DX009 (ip), vehicle: distilled water + alcohol 101 % of control

Cn1c2ccccc2c2nnc(N/N=C/c3ccc([N+](=O)[O-])o3)nc21
inactive: dose: 100.0 mg/kg/injection, schedule: Q01DX001 (ip), vehicle: saline with Tween-80 90 % of control | dose: 200.0 mg/kg/injection, schedule: Q01DX001 (ip), vehicle: saline with Tween-80 91 % of control | dose: 400.0 mg/kg/injection, schedule: Q01DX001 (ip), vehicle: saline with Tween-80 96 % of control

c1ccc2c(C[Se][Se]Cc3cccc4ccccc34)cccc2c1
inactive: [5] 90 % of control | [6] 90 % of control

N[C@@H](C(=O)O)[C@@H]1C=CCCC1
inactive: dose: 100.0 mg/kg/injection, schedule: Q04DX002 (ip), vehicle: saline 101 % of control | dose: 200.0 mg/kg/injection, schedule: Q04DX002 (ip), vehicle: saline 94 % of control

CC1(C)NNC(=S)NC1=O
inactive: [4] 99 % of control | [7] 100 % of control | [5] 97 % of control | [8] 113 % of control | [6] 94 % of control | [9] 97 % of control

COc1ccc(C2(c3ccc(OC)cc3)ON(C(c3ccccc3)c3ccccc3)C2=O)cc1
inactive: [1] 95 % of control | [2] 91 % of control | [3] 89 % of control

CCOC(C#CC(=O)C(C)C)OCC
inactive: dose: 60.0 mg/kg/injection, schedule: Q01DX005 (ip), vehicle: saline 101 % of control | dose: 120.0 mg/kg/injection, schedule: Q01DX005 (ip), vehicle: saline 98 % of control | dose: 240.0 mg/kg/injection, schedule: Q01DX005 (ip), vehicle: saline 101 % of control

[Cl][Pt+2][Cl].[NH-]CC([NH-])CN
inactive: dose: 6.25 mg/kg/injection, schedule: Q04DX003 (ip), vehicle: saline 101 % of control | dose: 12.5 mg/kg/injection, schedule: Q04DX003 (ip), vehicle: saline 111 % of control | dose: 25.0 mg/kg/injection, schedule: Q04DX003 (ip), vehicle: saline 107 % of control

CCCCCCCCCCCCCCCC[As](CCCCCCCCCCCCCCCC)SCC1OC(OC(C)=O)C(OC(C)=O)C(OC(C)=O)C1OC(C)=O (stereo unspecified)
inactive: dose: 25.0 mg/kg/injection, schedule: Q01DX009 (ip), vehicle: saline with Tween-80 114 % of control | [7] 109 % of control and 119 % of control | [8] 117 % of control | [9] 119 % of control

COc1cc(C)c2nc3c(C)c(Cl)ccc3c(Cl)c2c1
inactive: dose: 3.0 mg/kg/injection, schedule: Q01DX005 (ip), vehicle: Klucel + Tween-80 98 % of control | dose: 6.0 mg/kg/injection, schedule: Q01DX005 (ip), vehicle: Klucel + Tween-80 100 % of control | dose: 12.0 mg/kg/injection, schedule: Q01DX005 (ip), vehicle: Klucel + Tween-80 97 % of control | dose: 50.0 mg/kg/injection, schedule: Q01DX005 (ip), vehicle: Klucel + Tween-80 88 % of control

COc1cccc(-c2nc3n(n2)CCc2ccccc2-3)c1
inactive: [7] 105 % of control | [8] 106 % of control | [9] 86 % of control

O=C1NC(=O)C(C23CCN(CC2)CC3)N1 (stereo unspecified)
inactive: dose: 100.0 mg/kg/injection, schedule: Q04DX003 (ip), vehicle: saline 101 % of control | dose: 200.0 mg/kg/injection, schedule: Q04DX003 (ip), vehicle: saline 100 % of control | dose: 400.0 mg/kg/injection, schedule: Q04DX003 (ip), vehicle: saline 107 % of control

O=C(c1ccccc1)C(O)NC(=S)c1ccc(Cl)cc1 (stereo unspecified)
inactive: [7] 107 % of control | [8] 113 % of control | [9] 113 % of control

CN(C)C(=O)C(=O)C1C=Cc2ccccc21 (stereo unspecified)
inactive: [8] 100 % of control | [9] 90 % of control | dose: 400.0 mg/kg/injection, schedule: Q01DX009 (ip), vehicle: saline with Tween-80 95 % of control

C1CCCC2(CCC1)OCCO2
inactive: dose: 100.0 mg/kg/injection, schedule: Q04DX003 (ip), vehicle: Klucel (hydroxypropylcellulose) (HPC) 106 % of control | dose: 200.0 mg/kg/injection, schedule: Q04DX003 (ip), vehicle: Klucel (hydroxypropylcellulose) (HPC) 102 % of control | dose: 400.0 mg/kg/injection, schedule: Q04DX003 (ip), vehicle: Klucel (hydroxypropylcellulose) (HPC) 95 % of control

CC(C)c1ccc2c[n+]3ccccc3cc2c1
inactive: dose: 6.25 mg/kg/injection, schedule: Q01DX005 (ip), vehicle: Klucel (hydroxypropylcellulose) (HPC) 100 % of control and 108 % of control | dose: 12.5 mg/kg/injection, schedule: Q01DX005 (ip), vehicle: Klucel (hydroxypropylcellulose) (HPC) 106 % of control and 112 % of control

Nc1ncnc2nc(/N=N/SCCC(=O)O)[nH]c12
inactive: dose: 50.0 mg/kg/injection, schedule: Q01DX005 (ip), vehicle: saline with Tween-80 108 % of control | dose: 100.0 mg/kg/injection, schedule: Q01DX005 (ip), vehicle: saline with Tween-80 103 % of control | dose: 200.0 mg/kg/injection, schedule: Q01DX005 (ip), vehicle: saline with Tween-80 100 % of control

CSC(=S)N/N=C/c1nccc(-c2ccccc2)c1C
inactive: dose: 50.0 mg/kg/injection, schedule: Q01DX009 (ip), vehicle: saline 97 % of control | dose: 100.0 mg/kg/injection, schedule: Q01DX009 (ip), vehicle: saline 108 % of control | dose: 200.0 mg/kg/injection, schedule: Q01DX009 (ip), vehicle: saline 96 % of control

Cc1ccc(S(=O)CC(O)COCc2ccccc2)cc1 (stereo unspecified)
inactive: [7] 89 % of control | [8] 94 % of control | [9] 91 % of control
